In US12570675B2, “Boronic acid compounds” (LG CHEM, LTD., priority 2020, dated 2026) one finds IC50 data, which are given here for 31 molecules.

The experiment has as its target Proteasome chymotrypsin-like activity (S26 protein from RPMI8226 cells) (Homo sapiens, UniProt P28074). Format: biochemical. As to conditions: S26 protein from RPMI8226 cell extract 2 ug/well, substrate 20 uM, 37° C., 90 minutes; read-out: Proteasome chymotrypsin-like activity inhibition IC50. Put shortly: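 Inhibition is measured in crude proteasome (S26) from RPMI8226 cells at 2 ug/well, using 20 uM substrate specific to each activity: Suc-LLVY-AMC for chymotrypsin-like, Z-LLE-AMC for caspase-like. Compounds span a dilution series from 10 uM.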

Chain of Proteasome chymotrypsin-like activity (S26 protein from RPMI8226 cells) (P28074 60-263 limits assumed): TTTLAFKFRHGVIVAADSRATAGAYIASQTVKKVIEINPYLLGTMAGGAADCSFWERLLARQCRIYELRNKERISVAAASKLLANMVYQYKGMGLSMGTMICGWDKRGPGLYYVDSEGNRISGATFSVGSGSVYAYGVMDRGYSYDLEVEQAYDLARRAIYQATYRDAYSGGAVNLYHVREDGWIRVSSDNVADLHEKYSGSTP

As to `CC(C)C[C@H](NC(=O)C1(Cc2ccccc2)CC(CNC(=O)c2cc(F)cnc2Cl)=NO1)B(O)O` (stereo partly drawn) [Example 164, ((1R)-1-(5-benzyl-3-((2-chloro-5-fluoronicotinamido)methyl)-4,5-dihydroisoxazol-5-carboxamido)-3-methylbutyl)boronic acid], the IC50 is less than 10 nM. With `COc1cccc(-c2cccc(COCC3=NOC(Cc4ccccc4)(C(=O)N[C@@H](CC(C)C)B(O)O)C3)c2)c1` (stereo partly drawn) [Example 57, ((1R)-1-(5-benzyl-3-(((3′-methoxy-[1,1′-biphenyl]-3-yl)methoxy)methyl)-4,5-dihydroisoxazol-5-carboxamido)-3-methylbutyl)boronic acid] the figure was less than 25 nM; with `CC(C)C[C@H](NC(=O)C1(Cc2cccc(Cl)c2)CC(CNC(=O)c2cccn3ccnc23)=NO1)B(O)O` (stereo partly drawn) [Example 177, ((1R)-1-(5-(3-chlorobenzyl)-3-((imidazo[1,2-a]pyridin-8-carboxamido)methyl)-4,5-dihydroisoxazol-5-carboxamido)-3-methylbutyl)boronic acid], less than 10 nM; with `CC(C)C[C@H](NC(=O)C1CC([C@H](CC(C)C)NC(=O)c2ccccc2)=NO1)B(O)O` (stereo partly drawn) [Example 104, ((1R)-1-(3-((S)-1-benzamido-3-methylbutyl)-4,5-dihydroisoxazol-5-carboxamido)-3-methylbutyl)boronic acid], less than 100 nM. With `COc1cccc(C(=O)NCC2=NOC(Cc3ccccc3)(C(=O)N[C@@H](CC(C)C)B(O)O)C2)c1` (stereo partly shown) [Example 284], the IC50 was less than 10 nM.

`CC(C)[C@H](NC(=O)C1(Cc2ccccc2)CC(CNC(=O)c2cccn3ccnc23)=NO1)B(O)O` (stereo partly drawn) [Example 298, ((1R)-1-(5-benzyl-3-((imidazo[1,2-a]pyridin-8-carboxamido)methyl)-4,5-dihydroisoxazol-5-carboxamido)-2-methylpropyl)boronic acid]: the IC50 was less than 10 nM.

As for `Cc1cn2cccc(C(=O)NCC3=NOC(Cc4ccccc4)(C(=O)N[C@@H](CC(C)C)B(O)O)C3)c2n1` (stereo partly drawn) [Example 139, ((1R)-1-(5-benzyl-3-((2-methylimidazo[1,2-a]pyridin-8-carboxamido)methyl)-4,5-dihydroisoxazol-5-carboxamido)-3-methylbutyl)boronic acid], the half-maximal inhibitory concentration (IC50) is less than 10 nM. Take `CC(C)C[C@H](NC(=O)C1(Cc2cccc(OC(F)(F)F)c2)CC(CNC(=O)c2nccc3ccccc23)=NO1)B(O)O` (stereo partly drawn) [Example 216, ((1R)-1-(3-((isoquinolin-1-carboxamido)methyl)-5-(3-(trifluoromethoxy)benzyl)-4,5-dihydroisoxazol-5-carboxamido)-3-methylbutyl)boronic acid]: the IC50 is less than 10 nM. With `COc1cccc(CC2(C(=O)N[C@@H](CC(C)C)B(O)O)CC(CNC(=O)c3cc(-c4ccccn4)nn3C(C)C)=NO2)c1` (stereo partly drawn) [Example 241, ((1R)-1-(3-((1-isopropyl-3-(pyridin-2-yl)-1H-pyrazol-5-carboxamido)methyl)-5-(3-methoxybenzyl)-4,5-dihydroisoxazol-5-carboxamido)-3-methylbutyl)boronic acid] the figure was less than 10 nM; with `CC(C)C[C@H](NC(=O)C1(Cc2ccccc2)CC(CNC(=O)c2ccnc(Cl)c2)=NO1)B(O)O` (stereo partly shown) [Example 311], less than 10 nM; with `Cc1cc(COCC2=NOC(Cc3ccccc3)(C(=O)N[C@@H](Cc3ccccc3)B(O)O)C2)ccn1` (stereo partly drawn) [Example 277, ((1R)-1-(5-benzyl-3-(((2-methylpyridin-4-yl)methoxy)methyl)-4,5-dihydroisoxazol-5-carboxamido)-2-phenylethyl)boronic acid], less than 10 nM.

Take `Cc1cccc(CC2(C(=O)N[C@@H](CC(C)C)B(O)O)CC(CNC(=O)c3cc(-c4ccccn4)nn3C(C)C)=NO2)c1` (stereo partly drawn) [Example 245, ((1R)-1-(3-((1-isopropyl-3-(pyridin-2-yl)-1H-pyrazol-5-carboxamido)methyl)-5-(3-methylbenzyl)-4,5-dihydroisoxazol-5-carboxamido)-3-methylbutyl)boronic acid]: the IC50 is less than 10 nM. As for `CC(C)C[C@H](NC(=O)C1(Cc2ccccc2)CC(CNC(=O)c2cccc(C#N)c2)=NO1)B(O)O` (stereo partly shown) [Example 316], the IC50 is less than 10 nM. Turning to `CC(C)C[C@H](NC(=O)C1(Cc2ccccc2)CC(CNC(=O)c2ccn(C(C)C)n2)=NO1)B(O)O` (stereo partly drawn) [Example 172, ((1R)-1-(5-benzyl-3-((1-isopropyl-1H-pyrazol-3-carboxamido)methyl)-4,5-dihydroisoxazol-5-carboxamido)-3-methylbutyl)boronic acid], the IC50 was less than 10 nM.

Regarding `CC(C)C[C@H](NC(=O)C1(C2(c3ccccc3)CC2)CC(CNC(=O)c2nccc3ccccc23)=NO1)B(O)O` (stereo partly drawn) [Example 180, ((1R)-1-(3-((isoquinolin-1-carboxamido)methyl)-5-(1-phenylcyclopropyl)-4,5-dihydroisoxazol-5-carboxamido)-3-methylbutyl)boronic acid], the IC50 is less than 50 nM. `CC(C)C[C@H](NC(=O)C1CC(c2cncc(-c3ccccc3)c2)=NO1)B(O)O` (stereo partly drawn) [Example 33, ((1R)-3-methyl-1-(3-(5-phenylpyridin-3-yl)-4,5-dihydroisoxazol-5-carboxamido)butyl)boronic acid]: the half-inhibitory concentration (IC50) is less than 100 nM. Under `CC(C)C[C@H](NC(=O)C1(Cc2ccccc2)CC(CNCc2nccc3ccccc23)=NO1)B(O)O` (stereo partly drawn) [Example 147, ((1R)-1-(5-benzyl-3-(((isoquinolin-1-ylmethyl)amino)methyl)-4,5-dihydroisoxazol-5-carboxamido)-3-methylbutyl)boronic acid] stands less than 25 nM; under `CC(C)C[C@H](NC(=O)C1(C(O)c2ccccc2)CC(CNC(=O)c2nccc3ccccc23)=NO1)B(O)O` (stereo partly drawn) [Example 131, ((1R)-1-(5-(hydroxy(phenyl)methyl)-3-((isoquinolin-1-carboxamido)methyl)-4,5-dihydroisoxazol-5-carboxamido)-3-methylbutyl)boronic acid], less than 10 nM. On to `CC(C)C[C@H](NC(=O)C1(Cc2ccccc2)CC(CNC(=O)c2ccn[nH]2)=NO1)B(O)O` (stereo partly drawn) [Example 169, ((1R)-1-(3-((1H-pyrazol-5-carboxamido)methyl)-5-benzyl-4,5-dihydroisoxazol-5-carboxamido)-3-methylbutyl)boronic acid], for which the IC50 was less than 25 nM. Turning to `CC(C)C[C@H](NC(=O)C1(Cc2ccccc2)CC(C(C)(C)NC(=O)c2nccc3ccccc23)=NO1)B(O)O` (stereo partly drawn) [Example 157, [(1R)-1-[[5-benzyl-3-[1-(isoquinolin-1-carbonylamino)-1-methyl-ethyl]-4H-1,2-oxazol-5-carbonyl]amino]-3-methyl-butyl]boronic acid], the IC50 was less than 10 nM.

For the molecule `CC(C)C[C@H](NC(=O)C1(Cc2ccccc2)CC(COCc2cccc(C#N)c2)=NO1)B(O)O` (stereo partly shown) [Example 264], the IC50 is less than 10 nM. With `CC(C)[C@H](NC(=O)C1(Cc2ccccc2)CC(CNC(=O)c2cccc(Cl)n2)=NO1)B(O)O` (stereo partly drawn) [Example 319, ((1R)-1-(5-benzyl-3-((6-chloropicolinamido)methyl)-4,5-dihydroisoxazol-5-carboxamido)-2-methylpropyl)boronic acid] the figure was less than 10 nM; with `CC(C)[C@H](NC(=O)C1(Cc2ccccc2)CC(CNC(=O)c2cccc3ccccc23)=NO1)B(O)O` (stereo partly drawn) [Example 304, ((1R)-1-(3-((1-naphthamido)methyl)-5-benzyl-4,5-dihydroisoxazol-5-carboxamido)-2-methylpropyl)boronic acid], less than 10 nM. With `CCOCC1(C(=O)N[C@@H](CC(C)C)B(O)O)CC(CNC(=O)c2nccc3ccccc23)=NO1` (stereo partly drawn) [Example 193, ((1R)-1-(5-(ethoxymethyl)-3-((isoquinolin-1-carboxamido)methyl)-4,5-dihydroisoxazol-5-carboxamido)-3-methylbutyl)boronic acid] the figure was less than 10 nM. Consider `CC(C)C[C@H](NC(=O)C1(Cn2cccn2)CC(CNC(=O)c2cccn3ccnc23)=NO1)B(O)O` (stereo partly drawn) [Example 149, ((1R)-1-(5-((1H-pyrazol-1-yl)methyl)-3-((imidazo[1,2-a]pyridin-8-carboxamido)methyl)-4,5-dihydroisoxazol-5-carboxamido)-3-methylbutyl)boronic acid], for which the IC50 is less than 10 nM. Regarding `Cc1cc(C(=O)NCC2=NOC(C(=O)N[C@@H](CC(C)C)B(O)O)C2)no1` (stereo partly drawn) [Example 81, ((1R)-3-methyl-1-(3-((5-methylisoxazol-3-carboxamido)methyl)-4,5-dihydroisoxazol-5-carboxamido)butyl)boronic acid], the IC50 is less than 250 nM. For `CC(C)C[C@H](NC(=O)C1(Cc2ccccc2)CC(COCc2cccc(Br)n2)=NO1)B(O)O` (stereo partly drawn) [Example 53, ((1R)-1-(5-benzyl-3-(((6-bromopyridin-2-yl)methoxy)methyl)-4,5-dihydroisoxazol-5-carboxamido)-3-methylbutyl)boronic acid], the IC50 is less than 10 nM. On to `CC(C)C[C@H](NC(=O)C1(Cc2cscn2)CC(CNC(=O)c2nccc3ccccc23)=NO1)B(O)O` (stereo partly drawn) [Example 137, ((1R)-1-(3-((isoquinolin-1-carboxamido)methyl)-5-(thiazol-4-ylmethyl)-4,5-dihydroisoxazol-5-carboxamido)-3-methylbutyl)boronic acid], for which the IC50 is less than 10 nM. As for `CC(C)C[C@H](NC(=O)C1(Cc2ccccc2)CC(COCc2cccn3ccnc23)=NO1)B(O)O` (stereo partly shown) [Example 266], the IC50 was less than 10 nM. Take `O=C(N[C@@H](Cc1ccccc1)B(O)O)C1(Cc2ccccc2)CC(COCc2cccn3ccnc23)=NO1` (stereo partly drawn) [Example 267, ((1R)-1-(5-benzyl-3-((imidazo[1,2-a]pyridin-8-ylmethoxy)methyl)-4,5-dihydroisoxazol-5-carboxamido)-2-phenylethyl)boronic acid]: the IC50 is less than 10 nM.

As to `Cc1nc(C(=O)NCC2=NOC(Cc3ccccc3)(C(=O)N[C@@H](CC(C)C)B(O)O)C2)co1` (stereo partly drawn) [Example 173, ((1R)-1-(5-benzyl-3-((2-methyloxazol-4-carboxamido)methyl)-4,5-dihydroisoxazol-5-carboxamido)-3-methylbutyl)boronic acid], the IC50 was less than 25 nM.

By IC50 is commonly meant the midpoint of a concentration-inhibition curve.
